Results on 6 molecules are retold here after patent US12648951B2, “Methods of treating castration-resistant prostate cancer with glucocorticoid receptor antagonists, androgen deprivation therapy and anti-androgen receptor therapy” (University of Chicago, priority 2012, dated 2026).

In data set [1] the test system is CRPC cell lines. The data set is described as follows: Proliferation / growth of castrate-resistant prostate cancer cell lines. The class given is cell-based, human. From the text:
(§1) GR Antagonist Studies. […]. SGK1-FLAG or vector was stably expressed and cellular viability, secreted PSA, and protein lysates were collected.

Data set [2] relates to LAPC4 prostate cancer cell line. The data set is described as follows: Cell survival of LAPC4 cells grown with MDV3100, R1881, Dex, Mif, GSK650394. The class given is cell-based, human.
Description: as §1

For data set [3] the following is noted: cited from earlier work.
Data set [4] concerns advanced prostate cancer. Particulars: cited from earlier work.
The conditions of data set [5]: at 9 months; cited from earlier work.
In data set [6] the test system is prostate specific antigen serum levels. The following applies: after a month of taking the medicine; cited from earlier work.
The subject of data set [7] is castration-resistant prostate cancer patients who have received prior docetaxel. The following applies: cited from earlier work.
Data set [8] has as its system CWR-22RV1 (22RV1) prostate cancer cell line. The data set is described as follows: Cell survival of CWR-22RV1 cells grown with MDV3100, R1881, Dex, GSK650394. In kind it is cell-based, human.
Description: as §1

The test system of data set [9] is LAPC4 cell line. Nature of the data set: GR expression following MDV3100 treatment, LAPC4. In kind it is cell-based, human.
For data set [10], the system named is LNCaP cells engineered to express elevated levels of AR. The following applies: cited from earlier work.
Data set [11] concerns breast cancer cell. Particulars: cited from earlier work.
Data set [12] deals with SGK1. The data set is described as follows: Expression of SGK1 in prostate cancer cell lines. The following applies: MDV3100, and addition of Dex. In kind it is cell-based, human.
Description: as §1

For data set [13], the system named is metastatic castration-resistant prostate cancer patients. Particulars: cited from earlier work.
The test system of data set [14] is CWR-22RV1 cell line. Nature of the data set: GR expression following MDV3100 treatment, CWR-22RV1. The class given is cell-based, human.
Data set [15] has as its system CRPC cell lines. Nature of the data set: GR expression level in CRPC cell lines. In kind it is cell-based, human. Particulars: addition of MDV3100, within 3-7 days.

Where two headings read alike, the source gives them in different places.

In the case of `CC#C[C@]1(O)CC[C@H]2[C@@H]3CCC4=CC(=O)CCC4=C3[C@@H](c3ccc(N(C)C)cc3)C[C@@]21C` [Mif, mifepristone], in [1], the “proliferation with addition of a GR inhibitor to MDV3100 under GR activation” value is given as “restoring the decrease in proliferation”. In addition, the “change in survival compared to R1881+Dex control” value in data set [2] (LAPC4, addition of Mif alone) was “no change in survival”.
As to `CC(C)C(=O)Nc1ccc([N+](=O)[O-])c(C(F)(F)F)c1` [flutamide], the hepatic impairment result in data set [3] (doses of 125 mg/day or less) is reported as “No cases of hepatic impairment”. The hepatotoxicity result in data set [3] (warnings from patients using 750 mg daily) is reported as “fatal hepatotoxicity has been reported”.
Turning to `CCNC(=O)[C@@H]1CCCN1C(=O)[C@H](CCCNC(=N)N)NC(=O)[C@H](CC(C)C)NC(=O)[C@@H](CC(C)C)NC(=O)[C@H](Cc1ccc(O)cc1)NC(=O)[C@H](CO)NC(=O)[C@H](Cc1c[nH]c2ccccc12)NC(=O)[C@H](Cc1c[nH]cn1)NC(=O)[C@@H]1CCC(=O)N1` [leuprolide], in data set [4] (human, in vivo), the cardiovascular toxicity result was “lower incidence of cardiovascular toxicity”. For the same molecule, the “reducing serum testosterone to castrate levels” value in data set [4] (monthly depot) was “equivalent to 3 mg of DES”. The Overall survival in data set [5] is 90.5%.
Regarding `CNC(=O)c1ccc(N2C(=S)N(c3ccc(C#N)c(C(F)(F)F)c3)C(=O)C2(C)C)cc1F` [MDV3100], the “decrease in prostate specific antigen serum levels” value in data set [6] was at most 89%. Moreover, the “lived longer than those taking placebo” value in data set [7] (AFFIRM interim analysis) was “approximately 5 months”. For the same molecule, in data set [7] (in vivo), the “median survival after progression on MDV3100” value is given as “under 1 year”. Moreover, the survival advantage in data set [7] (phase III, reported in 2012) is 4-5 month. In [8] (MDV3100 with vs without Dex), the cell survival is recorded as 51%. The GR expression result in data set [9] and in [14] was “increased” each time. For the same molecule, the “expression of androgen dependent genes PSA and TMPRSS2” value in [10] is “down regulated”. Moreover, in data set [11], the “breast cancer cell growth” value is on record as “inhibits breast cancer cell growth”. Moreover, the “Expression of SGK1” value in data set [12] was “reduced”. In addition, the entries for the “Median time to radiographic progression” value in data set [13] (chemo-naive patients) and in data set [13] (post-chemotherapy population) were 56 weeks and 25 weeks, respectively. Besides, the “patients with PSA level decreased more than 50 percent” value is 40/65 in [13] (chemo-naive patients) and 38/75 in [13] (chemotherapy-treated patients). The “reduction in cell death compared to R1881+Dex control” value in data set [2] (LAPC4) is on record as 26%. In [2] (LAPC4, MDV3100 with vs without Dex), the “cell survival compared to R1881 control” value is reported as 47%. The results for the “survival under MDV3100 treatment” value in [2] (SGK1-Flag over-expressing LAPC4 cells) and in data set [2] (vector control LAPC4 cells) were 61% and 24%, respectively. Besides, the GR expression level entry in data set [15] is reported as “significantly increases”.
As for `O=C(O)c1ccc(-c2c[nH]c3ncc(-c4ccccc4)cc23)cc1C1CCCC1` [GSK650394], the “cell survival following treatment with the SGK1 inhibitor” value in data set [8] (results similar to LAPC4) is recorded as “impaired”. Further, in data set [2] (LAPC4, GSK650394 added to MDV3100+Dex), the “% survival relative to R1881+Dex control” value is listed as 19%.
As to `CC(C)C[C@H](NC(=O)[C@@H](Cc1c[nH]c2ccccc12)NC(=O)[C@H](Cc1ccc(O)cc1)NC(=O)[C@H](CO)NC(=O)[C@H](Cc1c[nH]c2ccccc12)NC(=O)[C@H](Cc1c[nH]cn1)NC(=O)[C@@H]1CCC(=O)N1)C(=O)N[C@@H](CCCNC(=N)N)C(=O)N1CCC[C@H]1C(=O)NCC(N)=O` [triptorelin], the Overall survival in data set [5] is recorded as 97%.
